Assay results as given in patent US5521196A, “5-HT1F agonists for the treatment of migraine” (Eli Lilly and Company, priority 1994, dated 1996).
Counter-ions that a name gives are not always drawn.

target: T1, 5-HT1F receptor (Homo sapiens, UniProt P30939); experiment: biochemical; conditions: Table I; displacement of 4.5-5.5 nM [3H]5-HT, 37° C., 30 minutes; read-out: 5-HT1F BINDING Ki
T1 sequence (P30939 1-366): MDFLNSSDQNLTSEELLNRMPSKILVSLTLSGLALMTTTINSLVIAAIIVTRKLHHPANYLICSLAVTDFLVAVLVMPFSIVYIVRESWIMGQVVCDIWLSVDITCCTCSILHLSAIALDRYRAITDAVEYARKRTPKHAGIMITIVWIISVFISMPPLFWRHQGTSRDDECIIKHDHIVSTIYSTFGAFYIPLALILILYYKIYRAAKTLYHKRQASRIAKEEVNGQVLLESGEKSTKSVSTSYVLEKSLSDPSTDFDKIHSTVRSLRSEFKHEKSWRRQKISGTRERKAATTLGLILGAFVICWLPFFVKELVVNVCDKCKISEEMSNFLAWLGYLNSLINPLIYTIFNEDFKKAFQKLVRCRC

| SMILES | Ki [nM] |
| --- | --- |
| Cn1cc(CCN2CCC(c3c[nH]c4ccccc34)CC2)cn1 [Example 1, 3-<1-<2-<1-methyl-1H-pyrazol-4-yl>ethyl>-4-piperidinyl>-1H-indolehydrochloride] | 5.7 |
| Clc1ccc2[nH]cc(C3CCN(CCc4cnn(-c5cccc(Br)c5)c4)CC3)c2c1 [Example 36, 5-chloro-3-<1-<2-<1-(3-bromophenyl)-1H-pyrazol-4-yl>ethyl>-4-piperidinyl>-1H-indole oxalate] | 142 |
| CCCn1cc(CCN2CCC(c3c[nH]c4ccc(O)cc34)CC2)cn1 [Example 53, 5-hydroxy-3-<1-<2-<1-propyl-1H-pyrazol-4-yl>ethyl>-4-piperidinyl>-1H-indole] | 1.1 |
| Cc1cccc(-n2cc(CCN3CCC(c4c[nH]c5ccc(Cl)cc45)CC3)cn2)c1 [Example 42, 5-chloro-3-<1-<2-<1-(3-methylphenyl)-1H-pyrazol-4-yl>ethyl>-4-piperidinyl>- 1H-indole oxalate] | 43.2 |
| Clc1ccc2[nH]cc(C3CCN(CCc4cnn(-c5ccc(Br)cc5)c4)CC3)c2c1 [Example 37, 5-chloro-3-<1-<2-<1-(4-bromophenyl)-1H-pyrazol-4-yl>ethyl>-4-piperidinyl>-1H-indole] | 65.6 |
| COc1ccccc1-n1cc(CCN2CCC(c3c[nH]c4ccc(Cl)cc34)CC2)cn1 [Example 39, 5-chloro-3-<1-<2-<1-(2-methoxyphenyl)-1H-pyrazol-4-yl>ethyl>-4-piperidinyl>-1H-indole oxalate] | 63.5 |
| Clc1ccc(-n2cc(CCN3CCC(c4c[nH]c5ccc(Cl)cc45)CC3)cn2)cc1 [Example 34, 5-chloro-3-<1-<2-<1-(4-chlorophenyl)-1H-pyrazol-4-yl>ethyl>-4-piperidinyl>- 1H-indole] | 161 |
| CC(C)n1cc(CCN2CCC(c3c[nH]c4ccc(Br)cc34)CC2)cn1 [Example 9, 5-bromo-3-<1-<2-<1-(1-methylethyl)-1H-pyrazol-4-yl>ethyl>-4-piperidinyl>-1H-indole oxalate] | 5 |
| Fc1ccc2[nH]cc(C3CCN(CCc4cccnc4)CC3)c2c1 [Example 47, 5-fluoro-3-<1-<2-<pyridin-3-yl>ethyl>-4-piperidinyl>-1H-indolehydrochloride monohydrate] | 115 |
| Brc1ccc2[nH]cc(C3CCN(CCc4cnn(-c5ccccc5)c4)CC3)c2c1 [Example 26, 5-bromo-3-<1-<2-<1-phenyl-1H-pyrazol-4-yl>ethyl>-4-piperidinyl>-1H-indoleoxalate] | 13.8 |
| Clc1ccc2[nH]cc(C3CCN(CCc4cnn(-c5ccccc5)c4)CC3)c2c1 [Example 25, 5-chloro-3-<1-<2-<1-phenyl-1H-pyrazol-4-yl>ethyl>-4-piperidinyl>-1H-indoleoxalate] | 6.9 |
| Oc1ccc2[nH]cc(C3CCN(CCc4cnn(-c5ccccc5)c4)CC3)c2c1 [Example 52, 5-hydroxy-3-<1-<2-<1-phenyl-1H-pyrazol-4-yl>ethyl>-4-piperidinyl>-1H-indole] | 2.4 |
| COc1ccc(-n2cc(CCN3CCC(c4c[nH]c5ccc(Cl)cc45)CC3)cn2)cc1 [Example 40, 5-chloro-3-<1-<2-<1-(4-methoxyphenyl)-1H-pyrazol-4-yl>ethyl>-4-piperidinyl>-1H-indole] | 12.7 |
| Fc1cccc(-n2cc(CCN3CCC(c4c[nH]c5ccc(Cl)cc45)CC3)cn2)c1 [Example 30, 5-chloro-3-<1-<2-<1-(3-fluorophenyl)-1H-pyrazol-4-yl>ethyl>-4-piperidinyl>- 1H-indole oxalate] | 51 |
| Clc1ccc2[nH]cc(C3CCN(CCc4cnn(CC5CC5)c4)CC3)c2c1 [Example 21, 5-chloro-3-<1-<2-<1-cyclopropylmethyl-1H-pyrazol-4-yl>ethyl>-4-piperidinyl>-1H-indole hydrochloride] | 14.5 |
| Fc1ccccc1-n1cc(CCN2CCC(c3c[nH]c4ccc(Cl)cc34)CC2)cn1 [Example 29, 5-chloro-3-<1-<2-<1-(2-fluorophenyl)-1H-pyrazol-4-yl>ethyl>-4-piperidinyl>- 1H-indole] | 10.4 |
| NC(=O)c1ccc2[nH]cc(C3CCN(CCc4cnn(-c5ccccc5)c4)CC3)c2c1 [Example 28, 5-carboxamido-3-<1-<2-<1-phenyl-1H-pyrazol-4-yl>ethyl>-4-piperidinyl>-1H-indole] | 24 |
| CC(C)n1cc(CCN2CC=C(c3c[nH]c4ccc(Cl)cc34)CC2)cn1 [Example 55, 5-chloro-3-<1,2,3,6-tetrahydro-1-<2-<1-(1-ethylmethyl)-1H-pyrazol-4-yl>ethyl>-4-pyridinyl>-1H-indole] | 7.4 |
| Fc1ccc2[nH]cc(C3CCN(CCc4ccccn4)CC3)c2c1 [Example 45, 5-fluoro-3-<1-<2-<pyridin-2-yl>ethyl>-4-piperidinyl>-1H-indoledihydrochloride] | 27 |
| Clc1cccc(-n2cc(CCN3CCC(c4c[nH]c5ccc(Cl)cc45)CC3)cn2)c1 [Example 33, 5-chloro-3-<1-<2-<1-(3-chlorophenyl)-1H-pyrazol-4-yl>ethyl>-4-piperidinyl>- 1H-indole oxalate] | 85.5 |
| Cn1cc(CCN2CCC(c3c[nH]c4ccc(Cl)cc34)CC2)cn1 [Example 3, 5-chloro-3-<1-<2-<1-methyl-1H-pyrazol-4-yl>ethyl>-4-piperidinyl>-1H-indolehydrochloride] | 1.7 |
| Clc1ccc2[nH]cc(C3CCN(CCc4cnn(-c5ccccc5Br)c4)CC3)c2c1 [Example 35, 5-chloro-3-<1-<2-<1-(2-bromophenyl)-1H-pyrazol-4-yl>ethyl>-4-piperidinyl>-1H-indole oxalate] | 48.4 |
| Cn1cc(CCN2CCC(c3c[nH]c4ccc(Br)cc34)CC2)cn1 [Example 4, 5-bromo-3-<1-<2-<1-methyl-1H-pyrazol-4-yl>ethyl>-4-piperidinyl>-1H-indoleoxalate] | 3 |
| Clc1ccc2[nH]cc(C3CCN(CCc4cnn(-c5ccccc5Cl)c4)CC3)c2c1 [Example 32, 5-chloro-3-<1-<2-<1-(2-chlorophenyl)-1H-pyrazol-4-yl>ethyl>-4-piperidinyl>- 1H-indole oxalate] | 44.1 |
| Fc1ccc2[nH]cc(C3CCN(CCc4cn[nH]c4)CC3)c2c1 [Example 48, 5-fluoro-3-<1-<2-<1H-pyrazol-4-yl>ethyl>-4-piperidinyl>-1H-indoledihydrochloride] | 8.1 |
| CCCn1cc(CCN2CCC(c3c[nH]c4ccccc34)CC2)cn1 [Example 12, 3-<1-<2-<1-propyl-1H-pyrazol-4-yl>ethyl>-4-piperidinyl>-1-H-indole oxalate] | 3.3 |
| Cc1ccccc1-n1cc(CCN2CCC(c3c[nH]c4ccc(Cl)cc34)CC2)cn1 [Example 41, 5-chloro-3-<1-<2-<1-(2-methylphenyl)-1H-pyrazol-4-yl>ethyl>-4-piperidinyl>- 1H-indole oxalate] | 153 |
| c1ccc(-n2cc(CCN3CCC(c4c[nH]c5ccccc45)CC3)cn2)cc1 [Example 23, 3-<1-<2-<1-phenyl-1H-pyrazol-4-yl>ethyl>-4-piperidinyl>-1H-indolehydrochloride] | 4.3 |
| Fc1ccc2[nH]cc(C3CCN(CCc4cnn(Cc5ccccc5)c4)CC3)c2c1 [Example 22, 5-fluoro-3-<1-<2-<1-benzyl-1H-pyrazol-4-yl>ethyl>-4-piperidinyl>-1H-indolehydrochloride] | 52.5 |

same assay, conditions: read-out: 5-HT1F BINDING Ki

| SMILES | Ki [nM] |
| --- | --- |
| CC(C)n1cc(CCN2CCC(c3c[nH]c4ccc(C(N)=O)cc34)CC2)cn1 [Example 11, 5-carboxamido-3-<1-<2-<1-(1-methylethyl)-1H-pyrazol-4-yl>ethyl>-4-piperidinyl>-1H-indole] | 10.3 |
